According to ChEMBL document CHEMBL1201862, “PubChem BioAssay data set” (2004):
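Briefly, cells in 96-well plates were exposed to five compound concentrations for 48 h, and endpoints were estimated by linear interpolation. GI50 marks 50% less growth.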 Activity calls are given as the source filed them. Cut-off read from the data, not from the text of the source: active = GI50 up to about 1.1 µM and inactive = higher.

Tests used:
Experiment in all cases: NCI tumour cell line growth inhibition, 48 h
M14 = system: M14
SF-295 = system: SF-295
RXF 393 = system: RXF 393
UO-31 = system: UO-31
SF-539 = system: SF-539
NCI-H460 = system: NCI-H460
A549 = system: A549
HT-29 = system: HT-29
UACC-257 = system: UACC-257
786-0 = system: 786-0
SK-MEL-5 = system: SK-MEL-5
SK-OV-3 = system: SK-OV-3
MCF7 = system: MCF7
RPMI-8226 = system: RPMI-8226
T47D = system: T47D
PC-3 = system: PC-3
HCT-15 = system: HCT-15
SR = system: SR
K562 = system: K562

Structure (SMILES) | GI50 (M14) | GI50 (SF-295) | GI50 (RXF 393) | GI50 (UO-31) | GI50 (SF-539) | GI50 (NCI-H460) | GI50 (A549) | GI50 (HT-29) | GI50 (UACC-257) | GI50 (786-0) | GI50 (SK-MEL-5) | GI50 (SK-OV-3) | GI50 (MCF7) | GI50 (RPMI-8226) | GI50 (T47D) | GI50 (PC-3) | GI50 (HCT-15) | GI50 (SR) | GI50 (K562)
CC12Oc3ccc4ccccc4c3CC1Cc1c(ccc3ccccc13)O2 (stereo not drawn) | 38.9 µM (inactive) | 30 µM (inactive) | 27.2 µM (inactive) | > 100 µM (inactive) | 60.4 µM (inactive) | 82.4 µM (inactive) | > 100 µM (inactive) | > 100 µM (inactive) | 50.4 µM (inactive) | 40.2 µM (inactive) | – | – | – | – | – | – | – | – | –
CCCN1C(=O)CC(C)N(Cc2ccccc2Cl)C1=S (stereo not drawn) | 25.7 µM (inactive) | 31.9 µM (inactive) | 3.9 µM (inactive) | – | 16 µM (inactive) | 31 µM (inactive) | 35.3 µM (inactive) | 37.9 µM (inactive) | 17.2 µM (inactive) | 36.4 µM (inactive) | 17.8 µM (inactive) | 31.9 µM (inactive) | 26.5 µM (inactive) | 24.8 µM (inactive) | 10.6 µM (inactive) | 22.8 µM (inactive) | 35.2 µM | – | –
Nc1ccc(CCN2CCN(c3cccc(C(F)(F)F)c3)CC2)cc1 | 82.6 µM (inactive) | 97.5 µM (inactive) | 89.5 µM (inactive) | 5.74 µM (inactive) | > 100 µM (inactive) | > 100 µM (inactive) | > 100 µM (inactive) | 70 µM (inactive) | 47 µM (inactive) | 84.3 µM (inactive) | 55.2 µM (inactive) | > 100 µM (inactive) | – | 45.2 µM (inactive) | – | – | > 100 µM | 58.5 µM (inactive) | 70.1 µM (inactive)
CCC1CC(C)=CCN1S(=O)(=O)c1ccc(C)cc1 (stereo not drawn) | 22 µM (inactive) | 32.7 µM (inactive) | – | 11.3 µM (inactive) | 14.5 µM (inactive) | 21.1 µM (inactive) | 21.5 µM (inactive) | 20 µM (inactive) | 25.9 µM (inactive) | 33.5 µM (inactive) | 13.9 µM (inactive) | 24.5 µM (inactive) | – | 3.89 µM (inactive) | – | – | 6.52 µM | 5.66 µM (inactive) | 7.5 µM (inactive)
CC(C)(C)OC(=O)N[C@H]1CC(O)c2ccccc2N(CC(=O)O)C1=O (stereo partly drawn) | > 100 µM (inactive) | > 100 µM (inactive) | > 100 µM (inactive) | > 100 µM (inactive) | > 100 µM (inactive) | > 100 µM (inactive) | > 100 µM (inactive) | > 100 µM (inactive) | > 100 µM (inactive) | > 100 µM (inactive) | > 100 µM (inactive) | > 100 µM (inactive) | – | – | – | – | > 100 µM | > 100 µM (inactive) | –
C1=CC2SSSC2C1 (stereo not drawn) | > 100 µM (inactive) | > 100 µM (inactive) | > 100 µM (inactive) | > 100 µM (inactive) | > 100 µM (inactive) | > 100 µM (inactive) | > 100 µM (inactive) | > 100 µM (inactive) | > 100 µM (inactive) | > 100 µM (inactive) | > 100 µM (inactive) | > 100 µM (inactive) | – | > 100 µM (inactive) | – | – | > 100 µM | > 100 µM (inactive) | > 100 µM (inactive)
Cc1oc2nc(N(C)C)n3nnnc3c2c1C | > 100 µM (inactive) | > 100 µM (inactive) | 57.4 µM (inactive) | 30.3 µM (inactive) | > 100 µM (inactive) | – | > 100 µM (inactive) | > 100 µM (inactive) | > 100 µM (inactive) | 70.1 µM (inactive) | > 100 µM (inactive) | 85.7 µM (inactive) | > 100 µM (inactive) | > 100 µM (inactive) | > 100 µM (inactive) | – | > 100 µM | > 10 µM (inactive) | > 100 µM (inactive)
CCCNC(=O)c1cc(NC(=O)c2cc(NC(=O)/C=C/c3ccccc3)c(OC)c(OC)c2)c(OC)c(OC)c1 | 38.4 µM (inactive) | 3.16 µM (inactive) | 2.42 µM (inactive) | 5.6 µM (inactive) | 6.14 µM (inactive) | 11.8 µM (inactive) | 5.64 µM (inactive) | 11.8 µM (inactive) | 14.2 µM (inactive) | 3.61 µM (inactive) | – | 7.62 µM (inactive) | 7.98 µM (inactive) | 27 µM (inactive) | – | 6.87 µM (inactive) | 92.3 µM | 48.9 µM (inactive) | > 100 µM (inactive)
CC(=O)NC(CCCNC(=O)N(CCCl)N=O)C(=O)NCc1ccccc1 (stereo not drawn) | > 100 µM (inactive) | 27.9 µM (inactive) | > 100 µM (inactive) | > 100 µM (inactive) | 11.7 µM (inactive) | 2.32 µM (inactive) | 69.2 µM (inactive) | > 100 µM (inactive) | > 100 µM (inactive) | 6.87 µM (inactive) | – | – | – | > 100 µM (inactive) | – | – | > 100 µM | 35.6 µM (inactive) | > 100 µM (inactive)
Cc1cccc(N2C(=O)C3c4[nH]c5ccccc5c4C4CCC(C(C)(C)C)CC4C3C2=O)c1C (stereo not drawn) | > 100 µM (inactive) | > 100 µM (inactive) | > 100 µM (inactive) | > 100 µM (inactive) | 75.9 µM (inactive) | > 100 µM (inactive) | 47 µM (inactive) | > 100 µM (inactive) | > 100 µM (inactive) | 38.7 µM (inactive) | > 100 µM (inactive) | > 100 µM (inactive) | > 100 µM (inactive) | > 100 µM (inactive) | – | > 100 µM (inactive) | > 100 µM | > 100 µM (inactive) | > 100 µM (inactive)
CC1=NNC(=O)C1C1CC(c2c[nH]c3ccccc23)=NN=C1Cl (stereo not drawn) | 53.5 µM (inactive) | 53.1 µM (inactive) | 45.8 µM (inactive) | 31.2 µM (inactive) | 55.6 µM (inactive) | 34.6 µM (inactive) | 57.4 µM (inactive) | 40.9 µM (inactive) | > 100 µM (inactive) | 49.9 µM (inactive) | 42.8 µM (inactive) | > 100 µM (inactive) | – | 23.7 µM (inactive) | 36.2 µM (inactive) | 56.5 µM (inactive) | 35.8 µM | – | 28.4 µM (inactive)
CC(C)(CO)NC(=O)Nc1c(C(F)(F)F)cc(-c2ccccc2)[nH]c1=O | > 100 µM (inactive) | > 100 µM (inactive) | > 100 µM (inactive) | > 100 µM (inactive) | – | > 100 µM (inactive) | > 100 µM (inactive) | > 100 µM (inactive) | > 100 µM (inactive) | > 100 µM (inactive) | > 100 µM (inactive) | > 100 µM (inactive) | > 100 µM (inactive) | – | > 100 µM (inactive) | > 100 µM (inactive) | > 100 µM | – | > 100 µM (inactive)
O=C(N/N=C(COc1ccccc1)\N=C\c1ccncc1)c1ccncc1 | > 100 µM (inactive) | > 100 µM (inactive) | > 100 µM (inactive) | – | > 100 µM (inactive) | > 100 µM (inactive) | > 100 µM (inactive) | > 100 µM (inactive) | > 100 µM (inactive) | > 100 µM (inactive) | – | > 100 µM (inactive) | > 100 µM (inactive) | 97.5 µM (inactive) | > 100 µM (inactive) | > 100 µM (inactive) | > 100 µM | – | > 100 µM (inactive)
CNNC1=NS(=O)(=O)c2cc(C)c(Cl)cc2S1 | > 10 µM (inactive) | > 10 µM (inactive) | > 10 µM (inactive) | 0.0344 µM (active) | > 10 µM (inactive) | > 10 µM (inactive) | > 10 µM (inactive) | > 10 µM (inactive) | > 10 µM (inactive) | > 10 µM (inactive) | > 10 µM (inactive) | > 10 µM (inactive) | – | > 10 µM (inactive) | > 10 µM (inactive) | > 10 µM (inactive) | > 10 µM | – | > 10 µM (inactive)
CCCCCCSCC/C(C)=N\OC | > 100 µM (inactive) | > 100 µM (inactive) | > 100 µM (inactive) | > 100 µM (inactive) | > 100 µM (inactive) | > 100 µM (inactive) | > 100 µM (inactive) | > 100 µM (inactive) | > 100 µM (inactive) | > 100 µM (inactive) | > 100 µM (inactive) | > 100 µM (inactive) | > 100 µM (inactive) | > 100 µM (inactive) | – | > 100 µM (inactive) | > 100 µM | – | > 100 µM (inactive)
CC1(C)CC(=O)c2c([nH]c(=S)c(C#N)c2-c2ccc(Br)cc2)C1 | 43 µM (inactive) | 35.7 µM (inactive) | 33.7 µM (inactive) | 45.9 µM (inactive) | 67.5 µM (inactive) | 40.7 µM (inactive) | 56.2 µM (inactive) | 40.3 µM (inactive) | 52.2 µM (inactive) | 78.5 µM (inactive) | 46.9 µM (inactive) | > 100 µM (inactive) | 40.7 µM (inactive) | – | – | 30.4 µM (inactive) | 45.8 µM | 22.8 µM (inactive) | 43.4 µM (inactive)
Cc1occc1C(=S)Nc1ccc(Cl)c(C(=O)OCC(C)C)c1 | 22.8 µM (inactive) | 16.6 µM (inactive) | – | 17.7 µM (inactive) | 22.3 µM (inactive) | 22.3 µM (inactive) | 20.3 µM (inactive) | 13.2 µM (inactive) | 17.9 µM (inactive) | 16.7 µM (inactive) | 15.4 µM (inactive) | 20.9 µM (inactive) | 14.6 µM (inactive) | 19.4 µM (inactive) | 12.8 µM (inactive) | 16.1 µM (inactive) | 16.9 µM | – | 12.1 µM (inactive)
c1ccc([B-]2(c3ccccc3)NCCCO2)cc1 | 31.3 µM (inactive) | 51.3 µM (inactive) | 28.8 µM (inactive) | 20 µM (inactive) | 33.3 µM (inactive) | 72.8 µM (inactive) | 58.6 µM (inactive) | > 100 µM (inactive) | 49.9 µM (inactive) | 56.9 µM (inactive) | 24.8 µM (inactive) | 85.7 µM (inactive) | – | 37.2 µM (inactive) | 34.9 µM (inactive) | 20.9 µM (inactive) | 31.8 µM | 44.9 µM (inactive) | 97.7 µM (inactive)
